The structures appear in SMILES notation.

Data set [1] can be described thus: Stability and moisture absorption: storage at 85% and 97% rel. humidity, evaluated by DSC, TGA and XRPD. Format: physicochemical. Particulars: 25° C.; for mass change: after 12 months. On the procedure:
Stability and Moisture Absorption Samples of compound of the formula (I) in crystalline form of polymorph I were stored at 85% and 97% rel. humidity (25° C.). The samples were evaluated after 12 months by DSC, TGA and XRPD. After 12 months, a mass change of <0.1% is observed in both cases. […] According to DSC, TGA and XRPD, no difference exists in compound of the formula (I) in crystalline form of polymorph I.
(DSC measures the heat that a sample takes up or gives off during a temperature scan.)

Data set [2] in a line: Storage stability of crystalline polymorph I. It counts as physicochemical.
[3] abbreviates: 85% and 97% rel. humidity, 12 months.

In the case of `CCOc1ncc(C)c2c1[C@H](c1ccc(C#N)cc1OC)C(C(N)=O)=C(C)N2` [(4S)-4-(4-Cyano-2-methoxyphenyl)-5-ethoxy-2,8-dimethyl-1,4-dihydro-1,6-naphthyridine-3-carboxamide], in data set [1] (setting [3]), the absorption of water entry is listed as “no significant absorption of water”; the “difference according to DSC, TGA and XRPD after storage” value is listed as “no difference”. Moreover, the mass change in data set [1] (stored at 85% rel. humidity) is under 0.1%. In data set [1] (stored at 97% rel. humidity), the mass change was under 0.1%. Further, the “storage time without any problem” value in data set [2] (crystalline form of polymorph I) is on record as over 2 years. Besides, the stability properties entry in data set [2] (even at high atmospheric humidity) is listed as “very good stability properties”.

The values are drawn from patent US10336749B2, “Method for the preparation of (4S)-4-(4-cyano-2-methoxyphenyl)-5-ethoxy-2,8-dimethyl-1,4-dihydro-1-6-naphthyridine-3-carboxamide and the purification thereof for use as an active pharmaceutical ingredient” (BAYER PHARMA AKTIENGESELLSCHAFT, priority 2015, dated 2019).
